In article PMC11979685, “Synthesis of Derivatives of the Antibiotic Albicidin: The N‐Terminal Fragment as Key to Control Potency and Resistance Mediated by the Binding Protein AlbA” (Chemistry (Weinheim an Der Bergstrasse, Germany), 2025):
In brackets after ≈: the same amount, converted by molar mass.

Columns and labels:
[1] = test system: E. coli DSM 1116; experiment: Qualitative growth inhibition assay in presence of AlbAS; format: cell-based, Escherichia coli
Experimental: Finally, we investigated if synthetic variations of building block A are able to evade the effects of the resistance protein AlbA. Therefore, we carried out a qualitative growth inhibition assay with derivatives 4–24 in presence of an equimolar amount of purified AlbAS. After incubation of the cultures overnight, the growth of the bacteria was evaluated. The ability of AlbAS to sufficiently sequester an albicidin derivative from the supernatant allowed E. coli cells to accumulate in a visible cell pellet. Second, we performed a quantitative transcription‐activation reporter assay[22] to assess transcriptional regulation by AlbAL. The promoter sequence pAlbA was inserted into a reporter vector that encodes the ilux luminescence cassette.[22] The luminescence signals elicited by ligand binding of synthetic variations to AlbAL was compared and normalized to the signal induced by 2nd Gen albicidin 2 and are hereby referred to as relative transcription activation (TA^%). The combination of both assays prompted us to categorize the experimental outcomes (Figure 4) in four groups:
Figure 4 Characterization of AlbA resistance against derivatives 2, 4–24. GIA: Qualitative growth inhibition assay against E. coli DSM 1116. (−): Derivative unable to inhibit the growth of E. coli in presence of AlbAS. (+): Derivative inhibits growth of E. coli in presence of AlbAS. […] For details see SI Figure 9. Transcription activation (TA) assay: luminescence elicited by 2nd Gen albicidin 2 from the TA assay was normalized to 100 % and the luminescence signal of tested derivatives provided: relative luminescence [%]=luminescence [derivative]/luminescence [2]×100 %. Green bars indicate low relative luminescence (<40 %) and red bars indicate high relative luminescence (>50 %). Error bars show the standard deviations of triplicate measurements. TEXT PRINTED IN THE PICTURE: 2: E. coli inhibition +AlbA: − | 4: E. coli inhibition +AlbA: + | 9: E. coli inhibition +AlbA: + | 11: E. coli inhibition +AlbA: + | 12: E. coli inhibition +AlbA: + | 13: E. coli inhibition +AlbA: ~ | 14: E. coli inhibition +AlbA: − | 16: E. coli inhibition +AlbA: − | 17: E. coli inhibition +AlbA: − | 18: E. coli inhibition +AlbA: − | 19: E. coli inhibition +AlbA: − | 20: E. coli inhibition +AlbA: + | 21: E. coli inhibition +AlbA: − | 22: E. coli inhibition +AlbA: − | 23: E. coli inhibition +AlbA: − | 24: E. coli inhibition +AlbA: − […]
1.3 Resistance assessment against AlbA
E. coli strain DSM 1116 was used for all susceptibility testing. E. coli BL21 Star (DE3) cells (Invitrogen) were used for protein expression. LB medium (Lysogeny broth: 10 g/L peptone, 5 g/L yeast extract, 5 g/L NaCl) was used as broth or in agar plates for all experiments. Incubation steps took place at 37°C and 180 rpm shaking if not stated otherwise. Throughout the study, 2nd Gen albicidin 2 was used as albicidin standard due to its better stability, availability and similar activity compared to natural albicidin in presence of resistance factors.[3,4]
AlbA expression and purification
N-terminally His-tagged AlbA was expressed using a pET28a vector as described previously.[5] In brief, E. coli BL21(DE3) cells were transformed with pET28-AlbA plasmid and grown in LB medium with kanamycin. LB broth supplemented with 50 µg/mL kanamycin was inoculated from over-night cultures and grown at 37°C until an OD600 of 0.6 was reached. After induction with 0.2 mM isopropyl β-D-1-thiogalactopyranoside (IPTG) the proteins were expressed at 18°C for 20 h. The cells were harvested by centrifugation (4,000 x G, 20 min), resuspended in lysis buffer (50 mM Tris, pH 8.0, 500 mM NaCl, 10% glycerol) and processed in a cell disruptor (Constant Systems Ltd) at 25 kPsi before centrifugation at 50,000 x G, at 4°C for 45 min. The lysate was incubated with Pure Cube Ni-NTA agarose (Cube Biotech, Germany) at 4°C for 20 min while shaking. The slurry was transferred to empty gravity-flow […]

[2] = Reverse-phase HPLC retention time as estimate of lipophilicity; format: physicochemical; conditions: indicator of lipophilicity
Source text: As mentioned before, albicidin 1 is a rather hydrophobic compound and improving its aqueous solubility is desirable. The lipophilicity of drug molecules is commonly characterized by the octanol/water partition coefficient (logP). An alternative approach relies on the correlation between lipophilicity and the retention time (Rt) on a reverse‐phase HPLC column.[31] This approach works well if structurally related compounds are compared as is the case for this SAR study. Rt was thus used to estimate the hydrophilicity of albicidin 1 and its derivatives 2–24 (Table 1).[32]

[3] = test system: Mycobacterium phlei DSM 750; experiment: MIC determination (broth microdilution); format: cell-based; conditions: Mycolicibacterium phlei, DSM750; read-out: MIC M. phlei
Experimental: (§1) After completing the syntheses, the antibacterial activity of A‐variations 4–24 was assessed by determination of MIC values against a basic set of gram‐negative and gram‐positive bacteria (Table 1). The monocyclic derivatives 4–8 featuring a cyano‐, trifluoromethyl‐, methoxy‐ and fluoro‐ substituent in para‐position were very active against the gram–negative E. coli and S. typhimurium strains with MIC values in the same range as 3rd Gen albicidin 3 or ciprofloxacin which is the gold standard for gyrase inhibitors. […] These findings are in agreement with previous studies showing good activities for cyano, trifluoromethyl, methoxy and fluoro substituents in the para‐position of different aromatic rings in the building block A.[12, 13] The activity of the monocyclic derivatives 4–8 against the gram‐positive strains B. subtilis and M. luteus were similar but slightly less pronounced compared to the lead structure 3.
(§2) 1.1 Determination of Minimal Inhibitory Concentrations (MIC)
(§3) Minimal inhibitory concentration (MIC) against selected bacterial strains values were determined according to the ninth edition of the Approved Standard M07-A9.[1] 20 μL of cryo stocks of bacterial strains were suspended in 20 mL LB medium (Lysogeny broth: 10 g/L peptone, 5 g/L yeast extract, 5 g/L NaCl). Following incubation overnight at 37°C, 200 rpm, the test inoculum was adjusted by 0.5 McFarland Standard in cation adjusted Mueller-Hinton broth (BBLTM Mueller-Hinton Broth II, Becton, Dickinson and Company, New Jersey, USA) to approximately 1x10^6 CFU mL-1. 95 μL of the bacterial inoculum were applied per well of a 96-well plate. Albicidin and albicidin derivatives 3−24 were dissolved in DMSO (100%) to an initial concentration of 2560 μg/mL and serially diluted in DMSO (100%). Initial solution and serial dilutions of Ciprofloxacin were prepared in 0.1 N HCL, respectively. 5 μL of each antibiotic dilution were added to the microdilution tray to reach albicidin concentrations of 128 μg/mL to 0.016 μg/mL per well. One row of each well plate served as a growth control without antibiotic substances and another row of the microdilution tray served as sterility control (only MHB II - media). The antimicrobial effect of the solvent (DMSO) was tested by adding 5 μL DMSO to several wells. Purity check and cell titer control were performed according to International S tandard M07-A9 on Mueller-Hinton II Agar (Mueller Hinton II Broth, 15 g/L agar-agar). Both microdilution trays and agar plates were incubated at 30−37°C for 16 h and subsequently analyzed for growth inhibition by naked eye. The following primary panel of microorganisms were purchased from German Collection of Microorganisms and Cell Cultures (DSMZ):
(§4) Escherichia coli DSM 1116
(§5) Micrococcus luteus DSM 1790
(§6) Mycobacterium phlei DSM 750
(§7) Salmonella typhimurium TA100 was kindly provided by Prof. Dr. Vera Meyer (Technische Universität Berlin). […]
(§8) was purchased as part of the single gene knockout library of E. coli K12 BW25113 (Keio collection) from Horizon Discovery group plc (Cambridge, UK).

[4] = test system: Salmonella typhimurium TA100; experiment: MIC determination (broth microdilution); format: cell-based; conditions: Salmonella enterica, read-out: MIC S. typh.
Experimental: as §1, §2, §3, §4, §5, §6, §7, §8

[5] = test system: E. coli DSM1116; experiment: MIC determination (broth microdilution); format: cell-based; conditions: Escherichia coli, DSM1116; read-out: MIC E. coli DSM1116
Experimental: as §1, §2, §3, §4, §5, §6, §7, §8

[6] = test system: Micrococcus luteus DSM 1790; experiment: MIC determination (broth microdilution); format: cell-based; conditions: DSM1790, read-out: MIC M. luteus
Experimental: as §1, §2, §3, §4, §5, §6, §7, §8

[7] = test system: E. coli BW25113; experiment: MIC determination (broth microdilution); format: cell-based; conditions: Escherichia coli, BW25113; read-out: MIC E. coli BW25113
Experimental: as §1, §2, §3, §4, §5, §6, §7, §8

[8] = test system: Bacillus subtilis DSM 10; experiment: MIC determination (broth microdilution); format: cell-based; conditions: DSM10, read-out: MIC B. sub.
Experimental: as §1, §2, §3, §4, §5, §6, §7, §8

[9] = test system: E. coli; experiment: MIC against E. coli in presence of 50 % human serum; format: cell-based; conditions: Escherichia coli; E. coli in presence of 50 % human serum; read-out: MICEc 50%HS
[10] = target: E. coli DNA gyrase (Escherichia coli, UniProt P0AES4); experiment: E. coli gyrase DNA cleavage assay; format: biochemical; design: key to Gyrase inhibition strong+ / weak −: + strong inhibition; − weak inhibition in comparison to compound 16
E. coli DNA gyrase, sequence (P0AES4 whole entry): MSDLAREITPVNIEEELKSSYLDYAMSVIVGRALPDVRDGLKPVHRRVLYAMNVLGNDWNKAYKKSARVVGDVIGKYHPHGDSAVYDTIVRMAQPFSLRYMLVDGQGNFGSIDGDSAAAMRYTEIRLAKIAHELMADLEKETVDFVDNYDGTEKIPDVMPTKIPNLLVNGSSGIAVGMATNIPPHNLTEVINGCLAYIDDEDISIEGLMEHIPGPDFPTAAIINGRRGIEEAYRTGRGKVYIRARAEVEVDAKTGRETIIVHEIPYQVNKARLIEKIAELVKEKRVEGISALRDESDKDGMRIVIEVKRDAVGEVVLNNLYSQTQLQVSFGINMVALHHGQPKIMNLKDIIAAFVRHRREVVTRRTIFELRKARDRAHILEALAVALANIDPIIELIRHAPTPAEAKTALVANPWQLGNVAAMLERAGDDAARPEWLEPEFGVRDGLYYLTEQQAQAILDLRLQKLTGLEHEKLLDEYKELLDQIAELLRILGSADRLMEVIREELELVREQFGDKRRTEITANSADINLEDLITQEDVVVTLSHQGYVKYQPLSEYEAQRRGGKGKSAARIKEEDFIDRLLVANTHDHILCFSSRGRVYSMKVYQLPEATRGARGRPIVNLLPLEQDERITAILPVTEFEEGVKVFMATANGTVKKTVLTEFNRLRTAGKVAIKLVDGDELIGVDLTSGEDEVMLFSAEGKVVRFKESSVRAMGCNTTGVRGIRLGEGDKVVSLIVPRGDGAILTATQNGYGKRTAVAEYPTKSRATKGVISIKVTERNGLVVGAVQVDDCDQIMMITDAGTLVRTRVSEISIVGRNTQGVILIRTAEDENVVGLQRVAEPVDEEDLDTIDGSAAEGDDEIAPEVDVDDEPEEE
Experimental: The target activity of the synthesized derivatives was investigated using a DNA cleavage assay with purified and enzymatically active E. coli DNA gyrase[8] (see SI). In this assay, albicidin‐stabilized complexes of gyrase and plasmid DNA are trapped, and subsequently denatured and deproteinated to reveal DNA linearized by gyrase. […] For the best performing compounds, which were able to fully stabilize the cleavage complex at a concentration of 1 μM, the concentrations at half‐maximum cleavage (CC50) were determined (Figure 3).
1.2 Escherichia coli Gyrase Cleavage Inhibition Assay
E. coli gyrase cleavage assays were executed by setting up a master mix including 0.25 µg relaxed plasmid (pBR322) in 35 mM Tris-HCl (pH 7.5), 24 mM KCl, 4 mM MgCl2, 2 mM dithithreitol (DTT), 1.8 mM spermidine, 1 mM ATP, 6.5% (wt/vol) glycerol and 0.1 mg/ml bovine serum albumin per reaction.
Of this stock solution, 13.2 µL was aliquoted for each reaction into 1.5 mL Eppendorf tubes and supplemented with 0.3 µL of the appropriate compound dilution or DMSO with a […] DMSO concentration of 2% per reaction. The reactions were started with 1.5 µL of 50 nM (pre-screening) or 40 nM (IC50 determinations) wt E. coli gyrase in dilution buffer (50 mM Tris-HCl (pH 7.5), 100 mM KCl, 2 mM DTT, 1 mM EDTA, and 50% (wt/vol) glycerol) for a […] volume of 15 µL. Reactions were incubated at 37°C for 30 minutes before addition of 1.5 µL 0.2% (wt/vol) SDS and 0.75 µL proteinase K (0.2 mg/mL) and further incubation at 37°C for 30 minutes to trap cleavage complexes. Reactions were stopped with 15 µL chloroform:isoamyl alcohol (24: 1 v/v) and 15 µL of STEB (40% (wt/vol) sucrose, […] Tris-Cl pH 8, 10 mM EDTA, 0.5 mg/mL bromophenol blue). After brief vortexing and centrifugation at 2,300g for 5 min, 15 µL of the aqueous phase was loaded onto 1% (wt/vol) agarose in TAE (Tris-acetate […] and EDTA […]) gels supplemented with 10 µg/mL ethidium bromide.
The gels were run at 85 V for 2 hours.
DNA was visualized (602/50, UV Trans, auto optimal exposure) with a ChemiDoc MP (Bio-Rad Laboratories Inc., equipped with ImageLab Touch Software v2.0.0.27) and the percentage of cleaved DNA relative to the total amount of DNA per lane was determined with ImageJ software.[2] IC50 curves were generated in GraphPad Prism (v10.0.0) using the non-linear regression curve fit variable slope with four parameters and least squares regression.

Row | SMILES | GIA: E. coli inhibition +AlbA ([1]; E. coli DSM 1116, 10 µM compound with equimolar AlbAS) | bioactivity in presence of AlbAS (in words) ([1]; E. coli, equimolar purified AlbAS) | Rt (retention time) [2] [min] | MIC [3] [µg/mL] | MIC [4] [µg/mL] | MIC [5] [µg/mL] | MIC [6] [µg/mL] | MIC [7] [µg/mL] | MIC [8] [µg/mL] | MIC [9] [µg/mL] | CC50 ([10]; E. coli gyrase DNA cleavage, read-out: CC50 (concentration at half-maximum cleavage)) [nM] | Gyrase inhibition strong+ / weak − ([10]; qualitative DNA cleavage assay at 1 μM and 10 μM, in comparison to compound 16)
1 | COc1c(NC(=O)c2ccc(NC(=O)c3ccc(NC(=O)[C@H](Cc4cn[nH]n4)NC(=O)c4ccc(NC(=O)/C(C)=C/c5ccc(O)cc5)cc4)cc3)c(OC)c2O)ccc(C(=O)O)c1O [compound 2, reference compound] | − | deactivated |  |  |  |  |  |  |  |  |  | 
2 | COc1c(NC(=O)c2ccc(NC(=O)c3ccc(NC(=O)[C@H](Cc4cn[nH]n4)NC(=O)c4ccc(NC(=O)/C(C)=C/c5ccc(O)cc5)cc4)cn3)c(OC)c2O)ccc(C(=O)O)c1O [compound 3, reference compound] |  |  | 8.15 | 0.25 (≈ 0.282 µM) | 0.016 (≈ 0.0181 µM) | 0.016 (≈ 0.0181 µM) | 0.031 (≈ 0.035 µM) | 0.016 (≈ 0.0181 µM) | 0.031 (≈ 0.035 µM) | 0.5 | 66 | +
